PubChem BioAssay (NCI)
Several values for one entry are separate records, joined by “and”; a condition that tells them apart may be missing. Identical values can stand only once.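 Exposure lasted 48 hours, with cells grown in 96-well plates and compounds tested at five concentrations. GI50 is the concentration that inhibits growth by half. TGI marks complete inhibition of growth.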

Assays:
Assay in all cases: NCI tumour cell line growth inhibition, 48 h
[1] = tested on: DLD-1 colon
[2] = tested on: KM20L2 colon
[3] = tested on: SNB-78 CNS
[4] = tested on: LXFL 529 NSCLC
[5] = tested on: RXF-631 renal
[6] = tested on: M19-MEL melanoma
[7] = tested on: HOP-18 NSCLC
[8] = tested on: XF 498 CNS
[9] = tested on: MDA-N

Structure (SMILES)	TGI [1]	TGI [2]	TGI [3]	TGI [4]	TGI [5]	TGI [6]	TGI [7]	TGI [8]	also measured
CC(C)CC1CC2C(=O)N(c3ccccc3)C(=O)C2c2[nH]c3ccccc3c21 (centres undefined)	> 100 µM	> 100 µM	> 100 µM	> 100 µM	51.8 µM	> 100 µM	31.4 µM	48.6 µM	–
CC(=O)CC(=O)Nc1ccc(OS(N)(=O)=O)cc1	> 100 µM	> 100 µM	> 100 µM	> 100 µM	> 100 µM	> 100 µM	> 100 µM	> 100 µM	–
CC[C@@]1(O)C(=O)OCc2c1cc1n(c2=O)Cc2cc3c(N)c(OC)ccc3nc2-1	> 100 µM	1.8 µM	> 100 µM	> 25.6 µM	2.74 µM	1.46 µM	> 100 µM	4.14 µM	GI50 [1]: 1 µM; GI50 [2]: 0.125 µM; GI50 [3]: 1.22 µM; GI50 [4]: 0.953 µM; GI50 [5]: 0.176 µM; GI50 [6]: 0.159 µM; GI50 [7]: 0.14 µM; GI50 [8]: 0.389 µM
O=C1C[C@@H]2[C@@H](C=CC23CCCC3)N1O	> 100 µM	> 100 µM	> 100 µM	> 100 µM	–	> 100 µM	> 100 µM	–	–
O=C1C2C3C=CC(C2C(=O)N1CN1CCOCC1)C1C2C(=O)N(CN4CCOCC4)C(=O)C2C31 (centres undefined)	> 100 µM	63.1 µM	> 100 µM	36.1 µM	74.9 µM	40.5 µM	60.2 µM	–	TGI [9]: > 100 µM
C[C@H]1CCC/C=C/[C@@H]2C[C@H](O)C[C@H]2[C@H](O)C(O)C(O)C(=O)O1 (some centres undefined)	–	–	–	–	–	–	–	–	GI50 [9]: 4.53 µM; TGI [9]: > 100 µM
NNC(=S)N/N=C(\c1nc2ccc(Cl)cc2[nH]c1=O)C(O)c1cccc([N+](=O)[O-])c1 (centres undefined)	–	> 100 µM	> 100 µM	> 100 µM	> 100 µM	> 100 µM	> 100 µM	> 100 µM	–
COc1ccc(C2=NC(CO)[C@H](c3ccccc3)O2)cc1OC (some centres undefined)	> 100 µM	> 100 µM	–	> 100 µM	> 100 µM	> 100 µM	–	> 100 µM	–
CC(C)C[C@H](NC(=O)[C@@H](N)Cc1cccc2ccccc12)B(O)O	–	–	–	–	–	–	–	–	GI50 [9]: < 0.01 µM
CCOC(=O)N1C/C(=C\c2ccc(N(C)C)cc2)C(=O)/C(=C/c2ccc(N(C)C)cc2)C1	> 100 µM	> 100 µM	> 100 µM	> 100 µM	> 100 µM	> 100 µM	> 100 µM	–	–
NC(=O)c1c(-c2ccccc2)c(-c2ccccc2)cc2c(=O)c3ccccc3[nH]c12	> 100 µM	72.9 µM	54.1 µM	32.7 µM	87.1 µM	79.3 µM	–	36.6 µM	–
O=c1oc2cc(O)ccc2cc1-c1nc2ccccc2o1	–	–	–	–	–	–	–	–	TGI [9]: > 100 µM
CN(C)Cc1c[nH]c2nc[nH]c(=O)c12	–	–	–	–	–	–	–	–	TGI [9]: 67.7 µM
CC[P+](C)(C)CC	> 100 µM	> 100 µM	> 100 µM	> 100 µM	> 100 µM	> 100 µM	> 100 µM	–	–
COc1cc(Br)c(C=Nc2cccc3ccc(OS(=O)(=O)c4ccc([N+](=O)[O-])cc4)cc23)cc1OC	> 100 µM	–	> 100 µM	> 100 µM	–	> 100 µM	–	–	–
N/N=C1\C(=O)N(c2ccc(Cl)c(Cl)c2)C(=O)C1C(=O)Nc1ccc(Cl)c(Cl)c1 (centres undefined)	> 100 µM	> 100 µM	79.5 µM	> 100 µM	> 100 µM	> 100 µM	> 100 µM	–	–
CN(COC(=O)C(C)(C)C)c1nc(N(C)COC(=O)C(C)(C)C)nc(N(C)COC(=O)C(C)(C)C)n1	–	–	–	–	–	–	–	–	TGI [9]: 80.3 µM
CCOC(=O)C(c1ccsc1)P(=O)(OCC)OCC (centres undefined)	44.9 µM	29 µM	76.9 µM	26.7 µM	–	25.7 µM	43.8 µM	38.4 µM	–
COc1ccc(-c2cc(-c3ccco3)c(C#N)c(=O)n2C2OC(COC(C)=O)C(OC(C)=O)C(OC(C)=O)C2OC(C)=O)cc1 (centres undefined)	> 100 µM	> 100 µM	> 100 µM	59.6 µM	> 100 µM and 46.5 µM	> 100 µM	> 100 µM and 64.2 µM	–	GI50 [5]: > 100 µM and 14.3 µM
CN(C)c1ccc(-c2nc(N)nc3c2CCCC3)cc1	> 100 µM	> 100 µM	> 100 µM	> 100 µM	–	> 100 µM	–	60.5 µM	–
CN1C=C(C(N)=O)Cc2ccsc21	> 100 µM	> 100 µM	> 100 µM	> 100 µM	–	> 100 µM	> 100 µM	–	–
